Laboratory results as given in patent US11197878B2, “Anti-inflammatory composition including novel quercetin-based compound” (AMOREPACIFIC CORPORATION, priority 2017, dated 2021).

Key:
Format in all cases: cell-based
Settings in all cases: fibroblast culture medium; H2O2 500 μM 24 hours, then test material (31, 32: 100 μg/ml) 48 hours; ELISA
IL-8 (Interleukin 8) = experiment: Test for inhibiting generation of IL-8 in H2O2-stimulated fibroblast (ELISA)
Method: (§1) Fibroblast (PromoCell, Germany) was inoculated in a 6-well culturing plate at a concentration of 1×10^5 cells, and cultured in a 5% CO2 incubator at 37° C. for 24 hours. The well was treated with H2O2 500 μM and stimulated for 24 hours, and then were treated with quercetin3-O-[3-O″-(E)-p-coumaroyl][β-D-glucopyranosyl-(1→3)-O-α-L-rhamnopyranosyl-(1→6)-O-β-D-glucopyranoside] (‘New Material 31’) and quercetin3-O-[3-O″-(E)-p-coumaroyl][α-L-rhamnopyranosyl-(1→6)-O-β-D-glucopyranoside]) (‘New Material 32’) at a concentration of 100 μg/ml, respectively, and reacted for 48 hours. After the reaction was finished, the culture medium was collected and the ELISA analysis was performed. Herein, α-bisabolol, which is the material typically used as an anti-inflammatory agent and abirritant, was used as a control. As PGE2, a kit of Assay Design® was used, and as IL-6 and IL-8, a kit of Endogen® was used, and the test was carried out according to the methods prescribed in the manuals of the respective companies. (‘31’ refers to New Material 31, and ‘32’ refers to New Material 32) Inhibition effect={1−(test sample−control)/(H2O2−control)}×100 <Equation 1>

PGE2 (Prostaglandin E2) = experiment: Test for inhibiting generation of PGE2 in H2O2-stimulated fibroblast (ELISA)
Method: as §1

IL-6 (Interleukin 6) = experiment: Test for inhibiting generation of IL-6 in H2O2-stimulated fibroblast (ELISA)
Method: as §1

α-bisabolol [a-bisabolol, reference compound]
IL-8 (IL-8 (Interleukin 8)): 200 pg/mL
PGE2 (PGE2 (Prostaglandin E2)): 205 pg/mL
IL-6 (IL-6 (Interleukin 6)): 180 pg/mL
